Test results as given in patent publication US10543212B2, “Substituted amines for treating cardiac diseases” (Cardurion Pharmaceuticals, LLC, priority 2017, dated 2020).
Counter-ions that a name gives are not always drawn.

Target: T1, Full-length, GST-tagged, human CaMKIIδ (Homo sapiens, UniProt Q13557)
T1 construct: Full-Length, Glutathione-S-Transferase(GST)-Tagged, Human CaMKIIδ was purchased from Carna Biosciences; purchased Carna Biosciences 02-111
Assay: CaMKIIδ binding assay (TR-FRET with BODIPY-labeled probe ligand)
Settings: CaMKIIδ binding assay, results of Table 2
Summary of the method: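 Compounds were tested as 4-fold, eight-point series for 1 hr at room temperature, and IC50 was obtained by logistic fitting against a 3 μM parent-compound control. Signal came from displacement of a 300 nM BODIPY ligand from 0.5 nM GST-CaMKIIδ, detected via Tb-anti-GST in calmodulin/Ca2+ (pH 7.6).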

T1 sequence (Q13557 1-478 isoform Q13557-12): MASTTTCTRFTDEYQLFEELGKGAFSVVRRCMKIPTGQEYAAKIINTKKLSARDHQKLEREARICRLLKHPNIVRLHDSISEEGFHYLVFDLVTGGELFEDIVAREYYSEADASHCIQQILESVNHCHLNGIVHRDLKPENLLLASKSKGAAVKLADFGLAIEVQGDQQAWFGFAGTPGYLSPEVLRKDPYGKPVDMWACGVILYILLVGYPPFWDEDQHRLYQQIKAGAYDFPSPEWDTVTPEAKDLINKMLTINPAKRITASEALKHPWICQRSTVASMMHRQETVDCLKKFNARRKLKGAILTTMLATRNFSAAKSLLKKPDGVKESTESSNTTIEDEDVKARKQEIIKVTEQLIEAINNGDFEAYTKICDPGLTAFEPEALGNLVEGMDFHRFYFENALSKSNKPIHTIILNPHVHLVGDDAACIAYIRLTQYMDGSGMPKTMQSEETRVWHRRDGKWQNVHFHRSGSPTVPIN

Q: Which IC50 does the source give for “(S)-5-(3-((1-(1H-tetrazol-1-yl)propan-2-yl)oxy)-4-chlorophenyl)-N-(5-(piperidin-4-(trifluoromethoxy)phenyl)pyrimidin-2-amine [Example 532]” here?
A: < 10 nM

Same assay, conditions: CaMKIIδ binding assay; activity class per Table 2

Q: Which IC50 does the source give for `C[C@@H](Cn1cnnn1)Oc1cc(-c2cnc(Nc3cn(C4CC5(C4)CN(c4ccccn4)C5)nc3OCC(F)(F)F)nc2)ccc1Cl` [Example 1001, (S)-5-(3-((1-(1H-tetrazol-1-yl)propan-2-yl)oxy)-4-chlorophenyl)-N-(1-(2-(pyridin-2-yl)-2-azaspiro[3.3]heptan-6-yl)-3-(2,2,2-trifluoroethoxy)-1H-pyrazol-4-yl)pyrimidin-2-amine] here?
A: < 10 nM

Q: With `C[C@@H](Cn1cnnn1)Oc1cc(-c2cnc(Nc3cn(C4CC5(C4)CN(C4(C#N)CCOCC4)C5)nc3OCC(F)(F)F)nc2)ccc1Cl` [Example 1010, (S)-4-(6-(4-((5-(3-((1-(1H-tetrazol-1-yl)propan-2-yl)oxy)-4-chlorophenyl)pyrimidin-2-yl)amino)-3-(2,2,2-trifluoroethoxy)-1H-pyrazol-1-yl)-2-azaspiro[3.3]heptan-2-yl)tetrahydro-2H-pyran-4-carbonitrile] as the compound, how does the IC50 read?
A: < 10 nM

Q: How did the IC50 turn out when `CO[C@H]1CC[C@@H](N2CC3(CC(n4cc(Nc5ncc(-c6ccc(Cl)c(O[C@@H](C)Cn7cnnn7)c6)cn5)c(C(C)C)n4)C3)C2)CC1` [Example 1011, 5-(3-(((S)-1-(1H-tetrazol-1-yl)propan-2-yl)oxy)-4-chlorophenyl)-N-(3-isopropyl-1-(2-(cis-4-methoxycyclohexyl)-2-azaspiro[3.3]heptan-6-yl)-1H-pyrazol-4-yl)pyrimidin-2-amine] was run?
A: < 10 nM

Q: Which IC50 does the source give for `COCCN1CC2(CC(n3cc(Nc4ncc(-c5ccc(Cl)c(O[C@@H](C)Cn6cnnn6)c5)cn4)c(C(C)C)n3)C2)C1` [Example 1012, (S)-5-(3-((1-(1H-tetrazol-1-yl)propan-2-yl)oxy)-4-chlorophenyl)-N-(3-isopropyl-1-(2-(2-methoxyethyl)-2-azaspiro[3.3]heptan-6-yl)-1H-pyrazol-4-yl)pyrimidin-2-amine] here?
A: < 10 nM

Q: With `CC(C)c1nn(C2CC3(C2)CN(C2COCOC2)C3)cc1Nc1ncc(-c2ccc(Cl)c(O[C@@H](C)Cn3cnnn3)c2)cn1` [Example 1013, (S)-N-(1-(2-(1,3-dioxan-5-yl)-2-azaspiro[3.3]heptan-6-yl)-3-isopropyl-1H-pyrazol-4-yl)-5-(3-((1-(1H-tetrazol-1-yl)propan-2-yl)oxy)-4-chlorophenyl)pyrimidin-2-amine] as the compound, how does the IC50 read?
A: < 10 nM

Target: T2, Human full-length CaMKIIδ (Homo sapiens, UniProt Q13557)
T2 construct: Human full-length CaMKIIδ (Cat #02-111) was obtained from Carna Biosciences; GST; purchased Carna Biosciences 02-111
Assay: Human CaMKII enzyme inhibition assay (radiometric kinase assay)
Assay type: biochemical
Settings: 3 μM compound; 500 nM ATP; 0.5 nM CaMKIIδ
Method: In Vitro CaMKIIδ Inhibitory Activity was Evaluated by an Enzyme Assay.
Human CaMKII Enzyme Inhibition Assay
Kinase assay for CaMKIIs was performed using the radiometric assay. Human full-length CaMKIIδ (Cat #02-111) was obtained from Carna Biosciences (Kobe, Japan).
Enzyme reactions were performed in 25 mM HEPES, pH 7.5, with 5 mM magnesium chloride, 1 mM calcium chloride, 10 μg/mL Calmodulin, 2 mM DTT, 0.01% Tween20 and 500 nM ATP (0.2 μCi/well of [γ-33P] ATP) containing 0.5 nM CaMKIIδ and 0.1 μM autophosphorylation peptide (KKALRRQETVDAL)(Toray Research Center).
After incubating the enzyme, peptide, and compounds for 5 min, kinase reactions were initiated by adding ATP, followed by incubation for 60 min at room temperature in a total volume of 50 μL. The reactions were terminated by the addition of 10% trichloroacetic acid (final concentration). The [γ-33P]-phosphorylated proteins were filtered in a Harvest Plate (Merck Millipore) with a Cell Harvester (PerkinElmer) and then free [γ-33P] ATP was washed out with 3% phosphoric acid. The plates were dried, followed by the addition of 40 μl of MicroScintO (PerkinElmer). The radioactivity was counted by a TopCount scintillation counter (PerkinElmer). The signals of the reaction without enzyme were defined as 100% inhibitory activity and those of the reaction without inhibitors as 0% inhibitory activity. In vitro CaMKIIδ inhibitory activity was evaluated by % inhibitory activity of 3 μM compound concentration.

Q: `COc1cc(N2CCC(N3CCOCC3)CC2)ccc1Nc1ncc(-c2ccc(C#N)c(O[C@@H](C)Cn3cnnn3)c2)cn1` [Example 9, 4-(2-((2-methoxy-4-(4-(morpholin-4-yl)piperidin-1-yl)phenyl)amino)pyrimidin-5-yl)-2-(((2S)-1-(1H-tetrazol-1-yl)propan-2-yl)oxy)benzonitrile] was tested. Which “CaMKIIδ inhibitory activity (%) at 3 μM” value did it give?
A: 99%

Same assay, conditions: 3 μM compound; 500 nM ATP; 0.5 nM CaMKIIδ; hydrochloride

Q: With `COc1cc(N2CCC(N3CCOCC3)CC2)ccc1Nc1ncc(-c2ccc(C#N)c(O[C@@H](C)Cn3cncn3)c2)cn1` [Example 8, 4-(2-((2-methoxy-4-(4-(morpholin-4-yl)piperidin-1-yl)phenyl)amino)pyrimidin-5-yl)-2-(((2S)-1-(1H-1,2,4-triazol-1-yl)propan-2-yl)oxy)benzonitrile hydrochloride] as the compound, how does the “CaMKIIδ inhibitory activity (%) at 3 μM” value read?
A: 98%

Same assay, conditions: 3 μM compound; 500 nM ATP; 0.5 nM CaMKIIδ; read-out: CaMKIIδ inhibitory activity (%) at 3 μM

Q: Which inhibition at 3 µM does the source give for `COc1cc(N2CCC(N3CCOCC3)CC2)ccc1Nc1ncc(-c2ccc(C#N)c(O[C@@H](C)Cn3cncn3)c2)cn1` [Example 1, 4-(2-((2-methoxy-4-(4-(morpholin-4-yl)piperidin-1-yl)phenyl)amino)pyrimidin-5-yl)-2-(((2S)-1-(1H-1,2,4-triazol-1-yl)propan-2-yl)oxy)benzonitrile] here?
A: 99%

Q: `COc1ccccc1Nc1ncc(-c2ccc(C#N)c(O[C@@H](C)Cn3cncn3)c2)cn1` [Example 2, 4-(2-((2-methoxy-phenyl)amino)pyrimidin-5-yl)-2-(((2S)-1-(1H-1,2,4-triazol-1-yl)propan-2-yl)oxy)benzonitrile] was tested. Which inhibition at 3 µM did it give?
A: 96%

Q: Which inhibition at 3 µM does the source give for `COc1cc(N2CCC(N3CCOCC3)CC2)ccc1Nc1ncc(-c2ccc(C#N)c(O[C@@H](C)Cn3ncnn3)c2)cn1` [Example 5, 4-(2-((2-methoxy-4-(4-(morpholin-4-yl)piperidin-1-yl)phenyl)amino)pyrimidin-5-yl)-2-(((2S)-1-(2H-tetrazol-2-yl)propan-2-yl)oxy)benzonitrile] here?
A: 98%

Q: For `COc1cc(N2CCC(N3CCOCC3)CC2)ccc1Nc1ncc(-c2ccc(C#N)c(O[C@@H](C)Cn3cnnn3)c2)cn1` [Example 10, 4-(2-((2-methoxy-4-(4-(morpholin-4-yl)piperidin-1-yl)phenyl)amino)pyrimidin-5-yl)-2-(((2S)-1-(1H-tetrazol-1-yl)propan-2-yl)oxy)benzonitrile hydrochloride], which inhibition at 3 µM is on record?
A: 98%

Q: `COc1ccccc1Nc1ncc(-c2ccc(C#N)c(O[C@@H](C)Cn3cnnn3)c2)cn1` [Example 16, 4-(2-((2-methoxy-phenyl)amino)pyrimidin-5-yl)-2-(((2S)-1-(1H-tetrazol-1-yl)propan-2-yl)oxy)benzonitrile] was tested. Which inhibition at 3 µM did it give?
A: 99%

Q: Which inhibition at 3 µM does the source give for `COc1cc(N2CCC(N3CCOCC3)CC2)ccc1Nc1ncc(-c2ccc(C#N)c(O[C@@H](C)Cn3cnnc3)c2)cn1` [Example 17, 4-(2-((2-methoxy-4-(4-(morpholin-4-yl)piperidin-1-yl)phenyl)amino)pyrimidin-5-yl)-2-(((2S)-1-(4H-1,2,4-triazol-4-yl)propan-2-yl)oxy)benzonitrile] here?
A: 98%

Q: With `COc1cc(CNC2CC2)ccc1Nc1ncc(-c2ccc(C#N)c(O[C@@H](C)Cn3cncn3)c2)cn1` [Example 33, 4-(2-((4-((cyclopropylami-no)methyl)-2-methoxy-phenyl)amino)pyrimidin-5-yl)-2-(((2S)-1-(1H-1,2,4-triazol-1-yl)propan-2-yl)oxy)benzonitrile dihydrochloride] as the compound, how does the inhibition at 3 µM read?
A: 98%

Q: `COc1cc(N2CCC(N3CCNCC3)CC2)ccc1Nc1ncc(-c2ccc(C#N)c(O[C@@H](C)Cn3cnnn3)c2)cn1` [Example 34] was tested. Which inhibition at 3 µM did it give?
A: 99%

Q: Which inhibition at 3 µM does the source give for `COc1cc(N2CCC(N3CCOCC3)CC2)ccc1Nc1ncc(-c2ccc(C#N)c(O[C@@H](C)Cn3ccnc3)c2)cn1` [Example 39, 2-(((2S)-1-(1H-imidazol-1-yl)propan-2-yl)oxy)-4-(2-((2-methoxy-4-(4-(morpholin-4-yl)piperidin-1-yl)phenyl)amino)pyrimidin-5-yl)benzonitrile] here?
A: 98%

Q: With `COc1cc(N2CCC(N3CCCCC3)CC2)ccc1Nc1ncc(-c2ccc(C#N)c(O[C@@H](C)Cn3cnnn3)c2)cn1` [Example 45, 4-(2-((4-(1,4′-bipiperidine-1′-yl)-2-methoxyphenyl)amino)pyrimidin-5-yl)-2-(((2S)-1-(1H-tetrazol-1-yl)propan-2-yl)oxy)benzonitrile] as the compound, how does the inhibition at 3 µM read?
A: 99%

Q: With `COc1cc(C2CCNCC2)ccc1Nc1ncc(-c2ccc(C#N)c(O[C@@H](C)Cn3cncn3)c2)cn1` [Example 50, 4-(2-((2-methoxy-4-(piperidin-4-yl)phenyl)amino)pyrimidin-5-yl)-2-(((2S)-1-(1H-1,2,4-triazol-1-yl)propan-2-yl)oxy)benzonitrile] as the compound, how does the inhibition at 3 µM read?
A: 99%

Q: How did the inhibition at 3 µM turn out when `COc1cc(CNC2CC2)ccc1Nc1ncc(-c2ccc(C#N)c(O[C@@H](C)Cn3cnnn3)c2)cn1` [Example 52, 4-(2-((4-((cyclopropylami-no)methyl)-2-methoxy-phenyl)amino)pyrimidin-5-yl)-2-(((2S)-1-(1H-tetrazol-1-yl)propan-2-yl)oxy)benzonitrile hydrochloride] was run?
A: 100%
